Measured values taken from PubChem BioAssay (NCI).
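Cultured in 96-well plates, cells were exposed to test compound for 48 hours across five concentrations. The concentration for full growth arrest is given as TGI.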

What was measured:
Experiment in all cases: NCI anticancer screen, dose series, 48 h
HCT-15 colon = system: HCT-15 colon
HL-60(TB) leukemia = system: HL-60(TB) leukemia
HT29 colon = system: HT29 colon
K-562 leukemia = system: K-562 leukemia
MDA-MB-435 = system: MDA-MB-435
MOLT-4 leukemia = system: MOLT-4 leukemia
OVCAR-4 ovarian = system: OVCAR-4 ovarian
PC-3 prostate = system: PC-3 prostate
SNB-19 CNS = system: SNB-19 CNS
UACC-257 melanoma = system: UACC-257 melanoma

Row | SMILES | TGI (HCT-15 colon) | TGI (HL-60(TB) leukemia) | TGI (HT29 colon) | TGI (K-562 leukemia) | TGI (MDA-MB-435) | TGI (MOLT-4 leukemia) | TGI (OVCAR-4 ovarian) | TGI (PC-3 prostate) | TGI (SNB-19 CNS) | TGI (UACC-257 melanoma)
1 | Cc1cc(-c2cc(C(C)(C)C)c(O)c(C(C)(C)C)c2)c(C)cc1-c1cc(C(C)(C)C)c(O)c(C(C)(C)C)c1 | > 100 µM | > 100 µM | > 100 µM | > 100 µM | 32.7 µM | > 100 µM | > 100 µM | > 100 µM | > 100 µM | > 100 µM
2 | C=CN(C=C)C(=O)Cn1cc(-c2ccccc2)nn1 | > 100 µM | > 100 µM | > 100 µM | > 100 µM | > 100 µM | > 100 µM | > 100 µM | > 100 µM | > 100 µM | > 100 µM
3 | CC(C)(C)/C(O)=C\c1nc2cc(F)c(F)cc2[nH]c1=O | > 100 µM | > 100 µM | > 100 µM | > 100 µM | > 100 µM | > 100 µM | > 100 µM | > 100 µM | > 100 µM | > 100 µM
4 | CCC1([N+](=O)[O-])CN(N=O)C1 | > 100 µM | > 100 µM | > 100 µM | > 100 µM | > 100 µM | > 100 µM | > 100 µM | > 100 µM | > 100 µM | > 100 µM
